This note sets out measurements from patent US20040122209A1, “Products for regulating the degradation of collagen and methods for identifying same” (Shriners Hospital For Children, priority 2002, published 2004).

Format in all cases: cell-based
Test [1] relates to adult bovine articular chondrocytes. Nature of the test: Collagenase-cleaved type II collagen (COL2-3/4C ELISA) in bovine chondrocyte pellet culture. The settings on record: preliminary studies; denatured 50° C. for 20 min; data not shown. As to the method: Adult bovine and human articular cartilage was obtained from metacarpophalangeal joints shortly (within 3 hours) after slaughter and from autopsy within 18 hr of death, respectively. Chondroctyes were released from freshly dissected articular cartilage specimens by sequential enzymatic digestion at 37° C. with trypsin and bacterial collagenase as previously described (Aimes, R. T., 1995). […]
The cell pellets and cartilage explant cultured for various times were digested for the extraction of collagenase-generated neoepitope COL2-3/4Cshort (Billinghurst, R. C. et al., (1997) supra) and denatured type II collagen epitope COL2-3/4m and total type II collagen (Hollander, A. P. et al. (1994a) supra), as previously described: Briefly, the harvested pellets were incubated overnight with 1.0 mg/ml α-chymotrypsin at 37° C. to cleave and solubilize denatured collagen leaving the above neoepitope and epitope intact. […] The COL2-3/4Cshort epitope (hereafter referred to as COL2-3/4Cshort) generated by cleavage of type II collagen by collagenase (Billinghurst, R. C. et al. (1997) supra) and intrachain epitope (COL2-3/4m) exposed in denatured type II collagen (Hollander, A. P. et al. (1994a) supra) were measured in α-chymotrypsin extracts by immunoassay. […] The release of the COL2-3/4C epitope into media was also measured by immunoassay. […]
(In general: ELISA stands for enzyme-linked immunosorbent assay.)

The test system of test [2] is bovine articular cartilage explant. Briefly: Collagenase-cleaved type II collagen (COL2-3/4C) in bovine articular cartilage explant culture. The settings on record: 0.1 and 1 μM from day 0; day 12; one way ANOVA. As to the method: The cartilages were prepared as previously described (Dahlberg, L. et al. (2000) supra. In brief, the cartilage samples were washed three times with basal culture medium containing Dulbecco's modified Eagle's medium (DMEM; Gibco BRL, Life Technologies, Grand Island, N.Y.) with 20 mM HEAPS buffer (pH 7.4) (Gibco BRL), 45 mM NaHCO3, 100 units/ml penicillin, 100 μg/ml streptomycin and 150 μg/ml gentamycin sulphate (Medium A). Full-depth cartilage slices from a single area, around 20 mm×20 mm were cut vertical to the articular surface and then into cubes of approximately 2 mm×2 mm (5-7 cubes were randomly obtained and wet weights about 50-70 mg/well determined).
The cartilage was assigned to 48 well plate (ca 40 mg/well) and kept in Medium A supplemented with 50 μg/ml ascorbic acid, 0.1 mg/bovine serum albumin, 50 μg/ml insulin, 5.0 μg/ml and 5.0 μg/ml sodium DMEM alone at 37° C. in 95% air/5% CO2. The cartilage was precultured for 2 days and medium was changed at day 0. Thereafter medium (as described in pellet cultures) was replaced every four days. Various CNBr fragments and/or synthetic peptides were freshly added from day 0 at each medium change. Thereafter, cartilage explants and conditioned media were harvested and stored at −20° C.
The cell pellets and cartilage explant cultured for various times were digested for the extraction of collagenase-generated neoepitope COL2-3/4Cshort (Billinghurst, R. C. et al., (1997) supra) and denatured type II collagen epitope COL2-3/4m and total type II collagen (Hollander, A. P. et al. (1994a) supra), as previously described: Briefly, the harvested pellets were incubated overnight with 1.0 mg/ml α-chymotrypsin at 37° C. to cleave and solubilize denatured collagen leaving the above neoepitope and epitope intact. After inhibition of α-chymotrypsin activity with N-tosyl-L-phenelalanine-chloromethyl ketone (Sigma), the samples were centrifuged and the supernatants were removed and boiled for 10 min. The COL2-3/4Cshort epitope (hereafter referred to as COL2-3/4Cshort) generated by cleavage of type II collagen by collagenase (Billinghurst, R. C. et al. (1997) supra) and intrachain epitope (COL2-3/4m) exposed in denatured type II collagen (Hollander, A. P. et al. (1994a) supra) were measured in α-chymotrypsin extracts by immunoassay. The COL2-3/4Cshort epitope is detected in an ELISA assay using a rabbit antibody to the carboxyterminal cleavage neoepitope on the TCA piece generated by primary collagenase cleavage of type II collagen. The release of the COL2-3/4C epitope into media was also measured by immunoassay. Total contents in tissue/cells and media was recorded for COL2-3/^4Cshort epitope. The COL2-3/4m epitope was recorded in cells and tissue where it was concentrated. The remaining residues of pellets and explants were digested overnight with 1.0 mg/ml proteinase K at 56° C. to extract the remaining intact type II collagen and then boiled for 10 min to denature the enzyme. Total type II collagen content in the pellets and explant was determined from the collective amount of COL2-3/4m in both the α-chymotrypsin and proteinase K digests.

The test system is the same in test [3]. Briefly: Proteoglycan (GAG) content and release in bovine explant culture. The settings on record: 0.1 and 1 μM from day 0. The procedure: The cartilages were prepared as previously described (Dahlberg, L. et al. (2000) supra. In brief, the cartilage samples were washed three times with basal culture medium containing Dulbecco's modified Eagle's medium (DMEM; Gibco BRL, Life Technologies, Grand Island, N.Y.) with 20 mM HEAPS buffer (pH 7.4) (Gibco BRL), 45 mM NaHCO3, 100 units/ml penicillin, 100 μg/ml streptomycin and 150 μg/ml gentamycin sulphate (Medium A). Full-depth cartilage slices from a single area, around 20 mm×20 mm were cut vertical to the articular surface and then into cubes of approximately 2 mm×2 mm (5-7 cubes were randomly obtained and wet weights about 50-70 mg/well determined). The cartilage was assigned to 48 well plate (ca 40 mg/well) and kept in Medium A supplemented with 50 μg/ml ascorbic acid, 0.1 mg/bovine serum albumin, 50 μg/ml insulin, 5.0 μg/ml and 5.0 μg/ml sodium DMEM alone at 37° C. in 95% air/5% CO2. The cartilage was precultured for 2 days and medium was changed at day 0. Thereafter medium (as described in pellet cultures) was replaced every four days. Various CNBr fragments and/or synthetic peptides were freshly added from day 0 at each medium change. Thereafter, cartilage explants and conditioned media were harvested and stored at −20° C. In order to show the specificity of the peptide fragments of one embodiment on degradation of type II collagen as compared with proteoglycan, primarily aggrecan, sulphated glycosaminoglycan (GAG) content was determined in both the α-chymotrypsin and proteinase K digests for total proteoglycan (predominantly aggrecan) content in cell pellets, cartilage explants and also in conditioned media. Measurement of release of proteoglycan into media was tested using dimethylene blue dye binding as previously described (Dahlberg, L. et al. (2000) supra).

On to “denatured type II collagen: denatured type II collagen purified from fetal bovine epiphyseal cartilage”, for which, in test [1], the “difference between pellet cultures treated with and without denatured type II collagen” value is reported as “no significant difference”. Also, the “COL2-3/4C content in medium and cartilage” value in test [2] is “no effect”. Besides, in test [3], the “GAG-release into culture media” value is on record as “no effect” and the “proteoglycan (GAG) contents” value is “no effect”.
